Molecular target: T1, human vascular endothelial growth factor receptor 2 (VEGF-R2) (Homo sapiens, UniProt P35968, DEL940-989/E990V)
T1 construct: VEGF-R2D50 contains residues 806-939 and 990-1171; made in house; host or cells: baculovirus/insect cell system
Test: VEGF-R2 coupled spectrophotometric assay (FLVK, unphosphorylated VEGF-R2D50)
Format: biochemical
Conditions: unphosphorylated VEGF-R2D50 (FLVK)
From the text: This construct determines the ability of a test compound to inhibit tyrosine kinase activity. A construct (VEGF-R2D50) of the cytosolic domain of human vascular endothelial growth factor receptor 2 (VEGF-R2) lacking the 50 central residues of the 68 residues of the kinase insert domain was expressed in a baculovirus/insect cell system. Of the 1356 residues of full-length VEGF-R2, VEGF-R2D50 contains residues 806-939 and 990-1171, and also one point mutation (E990V) within the kinase insert domain relative to wild-type VEGF-R2. Autophosphorylation of the purified construct was performed by incubation of the enzyme at a concentration of […] in the presence of 3 mM ATP and 40 mM MgCl2 in 100 mM HEPES, pH 7.5, containing 5% glycerol and 5 mM DTT, at 4° C. for 2 h. […] See Parast et al., Biochemistry, 37, 16788-16801 (1998).
VEGF-R2 Assay: Coupled Spectrophotometric (FLVK-P) Assay
The production of ADP from ATP that accompanies phosphoryl transfer was coupled to oxidation of NADH using phosphoenolpyruvate (PEP) and a system having pyruvate kinase (PK) and lactic dehydrogenase (LDH). The oxidation of NADH was monitored by following the decrease of absorbance at 340 nm (e340=6.22 cm^−1 mM^−1) using a Beckman DU 650 spectrophotometer. Assay conditions for phosphorylated VEGF-R2D50 (indicated as FLVK-P in the tables below) were the following: 1 mM PEP; […] NADH; 50 units of LDH/mL; 20 units of PK/mL; 5 mM DTT; 5.1 mM poly(E4Y1); 1 mM ATP; and 25 mM MgCl2 in 200 mM HEPES, pH 7.5. Assay conditions for unphosphorylated VEGF-R2D50 (indicated as FLVK in the tables) were the following: 1 mM PEP; […] NADH; 50 units of LDH/mL; 20 units of PK/mL; 5 mM DTT; 20 mM poly(E4Y1); 3 mM ATP; and 60 mM MgCl2 and 2 mM MnCl2 in 200 mM HEPES, pH 7.5. Assays were initiated with 5 to 40 nM of enzyme. K1 values were determined by measuring enzyme activity in the presence of varying concentrations of test compounds. The percent inhibition at 50 nM (% inhibition @ 50 nM) was determined by linear least-squares regression analysis of absorbance as a function of time. The binding inhibitions were fitted to equation as described by Morrison. The data were analyzed using Enzyme Kinetic and Kaleidagraph software.

T1 sequence (P35968 with tags, fused parts or gaps DEL940-989/E990V limits assumed): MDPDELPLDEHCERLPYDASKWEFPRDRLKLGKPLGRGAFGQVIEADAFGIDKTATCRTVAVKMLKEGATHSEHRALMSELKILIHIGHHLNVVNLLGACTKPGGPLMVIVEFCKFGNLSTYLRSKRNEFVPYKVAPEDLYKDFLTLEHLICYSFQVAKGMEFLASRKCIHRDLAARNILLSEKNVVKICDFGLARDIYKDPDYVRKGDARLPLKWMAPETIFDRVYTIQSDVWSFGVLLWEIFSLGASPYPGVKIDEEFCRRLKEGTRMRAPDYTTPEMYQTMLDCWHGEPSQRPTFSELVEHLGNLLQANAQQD

Row | Ki | Compound
1 | < 1 nM | CNC(=O)c1c(C)oc2cc(Oc3ccnc4cc(-c5ccncc5)ccc34)ccc12 [Example 7, N-2-dimethyl-6-[(7-pyridin-4-ylquinolin-4-yl)oxy]-1-benzofuran-3-carboxamide]
2 | > 10 nM | CNC(=O)n1c(C)cc2cc(Nc3ccnc4cc(-c5cccnc5)ccc34)ccc21 [Example 12, N,2-dimethyl-5-[(7-pyridin-3-ylquinolin-4-yl)amino]-1H-indole-1-carboxamide]
3 | 1 to 10 nM | CNC(=O)c1c(C)oc2cc(Oc3ccnc4cc(C(=O)N5CCC[C@H]5COC)ccc34)ccc12 [Example 15, 6-[(7-([(2S)-2-(methoxymethyl)pyrrolidin-1-yl]carbonyl}quinolin-4-yl)oxy]-N,2-dimethyl-1-benzofuran-3-carboxamide]
4 | > 10 nM | CNC(=O)c1c(C)sc2cc(Oc3ccnc4cc(C(=O)N5CCC[C@H]5COC)ccc34)ccc12 [Example 16, 6-[(7-{[(2S)-2-(methoxymethyl)pyrrolidin-1-yl]carbonyl)quinolin-4-yl)oxy]-N,2-dimethyl-1-benzothiophene-3-carboxamide]
5 | > 10 nM | CNC(=O)c1c(C)sc2cc(Oc3ccnc4cc(-c5ncccn5)ccc34)ccc12 [Example 18, N,2-dimethyl-6-[(7-pyrimidin-2-ylquinolin-4-yl)oxy]-1-benzothiophene-3-carboxamide]
6 | > 10 nM | CNC(=O)c1c(C)sc2cc(Oc3ccnc4cc(Br)ccc34)ccc12 [Example 20, 6-[(7-bromoquinolin-4-yl)oxy]-N,2-dimethy-1-benzothiophene-3-carboxamide]
7 | > 10 nM | CNC(=O)c1c(C)sc2cc(Oc3ccnc4ccc(-c5ccncc5)cc34)ccc12 [Example 23, N,2-dimethyl-6-[(6-pyridin-4-ylquinolin-4-yl)oxy]-1-benzothiophene-3-carboxamide]
8 | 1 to 10 nM | CNC(=O)c1c(C)oc2cc(Oc3ccnc4ccc(-c5ccncc5)cc34)ccc12 [Example 24, N,2-dimethyl-6-[(6-pyridin-4-ylquinolin-4-yl)oxy]-1-benzofuran-3-carboxamide]
9 | > 10 nM | CNC(=O)c1c(C)sc2cc(Oc3ccnc4ccc(O)cc34)ccc12 [Example 27, 6-[(6-hydroxyquinolin-4-yl)oxy]-N,2-dimethyl-1-benzothiophene-3-carboxamide]
10 | < 1 nM | CNC(=O)c1c(C)oc2cc(Oc3ccnc4cc(-c5nccs5)ccc34)ccc12 [Example 30]
11 | 1 to 10 nM | CNC(=O)c1c(C)oc2cc(Oc3ccnc4cc(OCc5ccccn5)ccc34)ccc12 [Example 33]
12 | > 10 nM | COc1ccc2c(Oc3ccc4c(C(=O)NCCN(C)C)c(C)sc4c3)ccnc2c1 [Example 49, N-[2-(dimethylamino)ethyl]-6-[(7-methoxyquinolin-4-yl)oxy]-2-methyl-1-benzothiophene-3-carboxamide]
13 | > 10 nM | COc1ccc2c(Oc3ccc4c(C(=O)NCc5cccnc5)c(C)sc4c3)ccnc2c1 [Example 54, 6-[(7-methoxyquinolin-4-yl)oxy]-2-methyl-N-(pyridin-3-ylmethyl)-1-benzothiophene-3-carboxamide]
14 | > 10 nM | CCCNC(=O)c1c(C)sc2cc(Oc3ccnc4cc(O)ccc34)ccc12 [Example 55, 6-[(7-hydroxyquinolin-4-yl)oxy]-2-methyl-N-propyl-1-benzothiophene-3-carboxamide]
15 | > 10 nM | Cc1sc2cc(Oc3ccnc4cc(O)ccc34)ccc2c1C(=O)NC1CCCC1 [Example 56, N-cyclopentyl-6-[(7-hydroxyquinolin-4-yl)oxy]-2-methyl-1-benzothiophene-3-carboxamide]
16 | > 10 nM | Cc1sc2cc(Oc3ccnc4cc(O)ccc34)ccc2c1C(=O)NCCN(C)C [Example 57, N-[2-(dimethylamino)ethyl]-6-[(7-hydroxyquinolin-4-yl)oxy]-2-methyl-1-benzothiophene-3-carboxamide]
17 | > 10 nM | CNC(=O)c1c(C)sc2cc(Oc3ccnc4cc(C(F)(F)F)ccc34)ccc12 [Example 60, N,2-dimethyl-6-{[7-(trifluoromethyl)quinolin-4-yl]oxy}-1-benzothiophene-3-carboxamide]
18 | > 10 nM | CNC(=O)c1c(C)oc2cc(Oc3ccnc4cc(C(F)(F)F)ccc34)ccc12 [Example 61, N,2-dimethyl-6-{[7-(trifluoromethyl)quinolin-4-yl]oxy}-1-benzofuran-3-carboxamide]
19 | 1 to 10 nM | COc1ccc2c(Oc3ccc4c(C(=O)NC(C)C)c(C)sc4c3)ccnc2c1 [Example 71, N-isopropyl-6-[(7-methoxyquinolin-4-yl)oxy]-2-methyl-1-benzothiophene-3-carboxamide]
20 | > 10 nM | CNC(=O)c1c(C)n(C)c2cc(Oc3ccnc4cc(OC)ccc34)ccc12 [Example 75, [(7-methoxyquinolin-4-yl)oxy]-N,1,2-trimethyl-1H-indole-3-carboxamide]
21 | > 10 nM | CNC(=O)c1c(C)n(C)c2cc(Oc3ccnc4cc(O)ccc34)ccc12 [Example 76]
22 | > 10 nM | CNC(=O)c1c(C)n(C)c2cc(Oc3ccnc4cc(OCCN5CCOCC5)ccc34)ccc12 [Example 77, N,1,2-trimethyl-6-{[7-(2-morpholin-4-ylethoxy)quinolin-4-yl]oxy}-1H-indole-3-carboxamide]
23 | > 10 nM | CNC(=O)c1c(C)n(C)c2cc(Oc3ccnc4cc(OCCN5CCCC5)ccc34)ccc12 [Example 78, N,1,2-trimethyl-6-{[7-(2-pyrrolidin-1-ylethoxy)quinolin-4-yl]oxy}-1H-indole-3-carboxamide]
24 | > 10 nM | CNC(=O)c1c(C)n(C)c2cc(Oc3ccnc4cc(OCCN5CCCCC5)ccc34)ccc12 [Example 79, N,1,2-trimethyl-6-{[7-(2-piperidin-1-ylethoxy)quinolin-4-yl]oxy}-1H-indole-3-carboxamide]
25 | > 10 nM | COc1ccc2c(Oc3ccc4c(C(=O)NCC(C)O)c(C)sc4c3)ccnc2c1 (stereo not drawn) [Example 80, N(2-hydroxypropyl)-6-[(7-methoxyquinolin-4-yl)oxy]-2-methyl-1-benzothiophene3-carboxamide]
26 | > 10 nM | CCC(O)CNC(=O)c1c(C)sc2cc(Oc3ccnc4cc(OC)ccc34)ccc12 (stereo not drawn) [Example 81, N-(2-hydroxybutyl)-6-[(7-methoxyquinolin-4-yl)oxy]-2-methyl-1-benzothiophene-3-carboxamide]
27 | > 10 nM | COc1ccc2c(Oc3ccc4c(C(=O)NCCC(C)O)c(C)sc4c3)ccnc2c1 (stereo not drawn) [Example 82, N-(3-hydroxybutyl)-6-[(7-methoxyquinolin-4-yl)oxy]-2-methyl-1-benzothiophene-3-carboxamide]
28 | < 1 nM | CNC(=O)c1c(C)oc2cc(Oc3ccnc4cc(OCC5OCCO5)ccc34)ccc12 [Example 83, 6-{[7-(1,3-dioxolan-2-ylmethoxy)quinolin-4-yl]oxy}-N,2-dimethyl-1-benzofuran-3-carboxamide]
29 | > 10 nM | COc1ccc2c(Oc3ccc4c(C(=O)NC[C@@H]5CCCO5)c(C)oc4c3)ccnc2c1 [Example 85, 6-[(7-methoxyquinolin-4-yl)oxy]-2-methyl-N-[(2S)-tetrahydrofuran-2-ylmethyl]-1-benzofuran-3-carboxamide]
30 | > 10 nM | COCC(C)NC(=O)c1c(C)oc2cc(Oc3ccnc4cc(OC)ccc34)ccc12 (stereo not drawn) [Example 87, 6-[(7-methoxyquinolin-4-yl)oxy]-2-methyl-N-[2-methoxy-1-methyl-ethyl]-1-benzofuran-3-carboxamide]

— patent US7381824B2 (Agouron Pharmaceuticals, Inc., priority 2003, dated 2008)
